From patent US20210363563A1, “MEDIUM FOR THE SPECIFIC DETECTION OF RESISTANT MICROORGANISMS” (BIOMERIEUX, priority 2005, published 2021)

Legend:
[1] = tested on: wild-type strains of the enterobacteria tested; test: Antibiotic concentration range on CPS ID 3 chromogenic agar: inhibition of wild-type strains; format: cell-based; details: CPS ID 3 agar, 37° C., aerobic atmosphere
Source text: (§1) In the context of the manipulations carried out, for evaluating the activity of the antibiotics active on gram-negative bacilli, various species of enterobacteria (Escherichia coli, Enterobacter aerogenes, Klebsiella pneumoniae, Serratia marcescens, Proteus mirabilis) and of nonfermenting gram-negative bacilli (Pseudomonas aeruginosa), capable of producing ESBLs, were used. ESBL-positive strains, high level cephalosporinase-producing strains (HL Case) and wild-type strains are compared in the trials.
(§2) The medium used was a CPS ID3 medium (reference 43541) also comprising at least one antibiotic and at least one resistance mechanism inhibitor.
(§3) Osmosed water is added and the whole is homogenized and melted in a waterbath at 100° C. The base medium is dispensed into flasks, the number of which corresponds to the total number of media to be tested during the process. The flasks are then autoclaved for 15 min at 121° C. The media are brought back to and kept molten at 55±3° C. in a waterbath, in order to sterilely add the thermolabile additives (sterilized beforehand by filtration through 0.22 μm). The media are then poured into biplates 90 mm in diameter (i.e. approximately 9.5 ml/half-plate), and left on a flat surface so that they can set. The surface of the agars is then dried under a laminar flow hood for 30 min.
(§4) An inoculum of 0.5 McF is prepared, in physiological saline, from 24-hour precultures at 36° C.±2° C. in an aerobic atmosphere on TSA medium, and then 1 μl of this suspension is transferred into 5 ml of physiological saline. In order to obtain a sufficient number of isolated colonies, a range of inocula made it possible to determine that the optimal amount of bacteria to be inoculated was from 10^3 to 10^4 CFU/ml. The inoculation is carried out directly on the two half-agars using a sterile swab. The cultures are then incubated at 37° C. in an aerobic atmosphere.
(§5) 4. Reading of media: the readings are carried out at 18 hours (±30 min), 24 h (±1h) and 48 h (±4 h). The density and the size of the colonies, and the appearance, the color and the coloration intensities of the mass and of the isolated colonies were observed, according to the following reading scales 1 to 3: 0: no growth; 0.1: trace of growth; 0.25: colonies of diameter<0.5 mm; 0.5: colonies of 0.5 mm in diameter; 0.75: 0.5 mm<diameter<1 mm; 1: colonies of 1 mm in diameter; 1.25: 1 mm<diameter<1.5 mm; 1.5: colonies 1.5 mm in diameter; 2: colonies 2 mm in diameter; 3: colonies of diameter>2 mm.
(§6) The 5 antibiotics recommended by the NCCLS (National Committee for Clinical Laboratory Standards) were tested. For each product tested, a range was prepared in order to determine the concentrations that make it possible to inhibit the wild-type strains of the enterobacteria tested, without affecting the growth of the ESBL-positive strains or the HL Case-positive strains.
(§7) The low value corresponds to the minimum concentration of the antibiotic required to inhibit the wild-type strains of the enterobacteria tested. The high value corresponds to the maximum concentration of the antibiotic that can be used without affecting the growth of the ESBL-positive strains tested.

ESBL-positive strains = test: Antibiotic concentration range on CPS ID 3 chromogenic agar: growth of ESBL-positive strains; format: cell-based; details: CPS ID 3 agar, 37° C., aerobic atmosphere
Source text: as §1, §2, §3, §4, §5, §6, §7

[2] = tested on: wild-type strains of P. aeruginosa; test: Antibiotic concentration range on CPS ID 3: complete inhibition of wild-type P. aeruginosa; format: cell-based, Pseudomonas aeruginosa; details: CPS ID 3 agar
Source text: as §1
Osmosed water is added and the whole is homogenized and melted in a waterbath at 100° C. The base medium is dispensed into flasks, the number of which corresponds to the total number of media to be tested during the process. The flasks are then autoclaved for 15 min at 121° C. […]
as §5, with “mm. […]” for “mm.”

[3] = tested on: ESBL-positive enterobacterial strains; format: cell-based, enterobacteria; details: in the presence of cefotaxime
Description: 4. Reading of media: the readings are carried out at 18 hours (±30 min), 24 h (±1h) and 48 h (±4 h). The density and the size of the colonies, and the appearance, the color and the coloration intensities of the mass and of the isolated colonies were observed, according to the following reading scales 1 to 3: 0: no growth; 0.1: trace of growth; 0.25: colonies of diameter<0.5 mm; 0.5: colonies of 0.5 mm in diameter; 0.75: 0.5 mm<diameter<1 mm; 1: colonies of 1 mm in diameter; 1.25: 1 mm<diameter<1.5 mm; 1.5: colonies 1.5 mm in diameter; 2: colonies 2 mm in diameter; 3: colonies of diameter>2 mm. […]

[4] = tested on: E. casseliflavus and E. gallinarum strains (natural resistances); test: Example 4: Columbia chromogenic media with vancomycin, naturally resistant enterococci; format: cell-based, Enterococcus casseliflavus, Enterococcus gallinarum; details: vancomycin 8 mg/l
Description: In the context of the manipulations carried out, for evaluating the activity of antibiotics active on enterococci, various species of Enterococcus (Enterococccus faecalis, Enterococcus faecium, Enterococcus casseliflavus, Enterococcus gallinarum,) were used. In the assays, strains resistant to glycopeptides (VRE) and wild-type strains are compared.
The media used were a Columbia medium (51026), also comprising: • 5-bromo-4-chloro-3-indolyl-N-methyl-α-D-glucopyranoside (GreenA-α-Glu) at 150 mg/l, • 6-chloro-3-indolyl-β-glucopyranoside (Rose-b-Glu [Pink-b-Glu]) at 200 mg/l, or: • 5-bromo-4-chloro-3-indolyl-N-methyl-α-D-glucopyranoside (GreenA-α-Glu) at 150 mg/l, • alizarine-β-galactopyranoside at 50 mg/l • and vancomycin at 8 mg/l, • an amphotericin B at 4 mg/l, • and colistine at 2 mg/l, • and aztreonam at 32 mg/l.
as §3, with “two basic media are” for “base medium is”, “flasks.” for “flasks, the number of which corresponds to the total number of media to be tested during the process.”, “plates” for “biplates”, “diameter” for “diameter (i.e. approximately 9.5 ml/half-plate),”, “min. […]” for “min.”

SMILES | Low value: minimum concentration of the antibiotic required to inhibit the wild-type strains of the enterobacteria tested [1] [mg/L] | High value: maximum concentration of the antibiotic that can be used without affecting the growth of the ESBL-positive strains tested (ESBL-positive strains) [mg/L] | also measured
C[C@H]1[C@H](NC(=O)/C(=N\OC(C)(C)C(=O)O)c2csc(N)n2)C(=O)N1S(=O)(=O)O [Aztreonam, aztreonam] | 1 | 1.5 | 
CO/N=C(\C(=O)N[C@@H]1C(=O)N2C(C(=O)O)=C(COC(C)=O)CS[C@H]12)c1csc(N)n1 [Cefotaxime, cefotaxime] | 1 | 2 | 
COCC1=C(C(=O)O)N2C(=O)[C@@H](NC(=O)/C(=N\OC)c3csc(N)n3)[C@H]2SC1 [Cefpodoxime, cefpodoxime] | 2 | 10 | 
CC(C)(O/N=C(\C(=O)N[C@@H]1C(=O)N2C(C(=O)[O-])=C(C[n+]3ccccc3)CS[C@H]12)c1csc(N)n1)C(=O)O [Ceftazidime, ceftazidime] | 2 | 2.5 | minimum concentration for complete inhibition of wild-type strains of P. aeruginosa (limiting value) [2]: 1.5 mg/L
CO/N=C(\C(=O)N[C@@H]1C(=O)N2C(C(=O)O)=C(CSc3nc(=O)c(=O)[nH]n3C)CS[C@H]12)c1csc(N)n1 [Ceftriaxone, ceftriaxone] | 1 | 2.5 | 
O=C(O)[C@H]1/C(=C/CO)O[C@@H]2CC(=O)N21 [clavulanic acid] |  |  | relative effectiveness among the β-lactamase inhibitors (BLI) tested [3]: most effective BLI
CN[C@H](CC(C)C)C(=O)N[C@H]1C(=O)N[C@@H](CC(N)=O)C(=O)N[C@H]2C(=O)N[C@H]3C(=O)N[C@H](C(=O)N[C@H](C(=O)O)c4cc(O)cc(O)c4-c4cc3ccc4O)[C@H](O)c3ccc(c(Cl)c3)Oc3cc2cc(c3O[C@@H]2O[C@H](CO)[C@@H](O)[C@H](O)[C@H]2O[C@H]2C[C@](C)(N)[C@H](O)[C@H](C)O2)Oc2ccc(cc2Cl)[C@H]1O [vancomycin] |  |  | effect on E. casseliflavus and E. gallinarum strains ([4]; medium with α-glucosidase and β-galactosidase substrates): inhibited; effect on E. casseliflavus and E. gallinarum strains ([4]; medium with α-glucosidase and β-glucosidase substrates): inhibited
